Values joined by “and” are separate entries in the source; they are usually repeats but may differ in a detail not shown here. Equal entries are not always repeated. * marks the point of attachment. Bz = O=C(c1ccccc1)*
How the values were obtained:
Assay type in all cases: physicochemical
[1] = Cysteine challenge stability of ^99mTc chelator peptides; details: N1-N2-Cys triamide thiol chelators; for % Peptide Complexed to ^99mTc Initial: 150 μg cysteine, room temperature, Initial (within 5 minutes); for % Peptide Complexed to ^99mTc 2 h / % Peptide Complexed to ^99mTc 4 h / % Peptide Complexed to ^99mTc 6 h / % Peptide Complexed to ^99mTc 8 h / % Peptide Complexed to ^99mTc 10 h / % Peptide Complexed to ^99mTc 12 h: cysteine challenge
Method: (§1) For the ^99mTc radiolabeling, a peptide as the TFA salt was dissolved in saline at 1 mg/mL and 100 μg (100 μL) was added to a ^99mTc placebo vial. The vial was reconstituted with 0.9 mL technetium ^99mTc sodium pertechnetate containing approximately 20 mCi and saline such that the final preparation volume was 1.1 mL. The vial was heated in a boiling water bath for 10 minutes and cooled at room temperature for 10 minutes.
(§2) The radiochemical purity (RCP) of the ^99mTc or ^188Re peptides was measured by gradient reversed phase HPLC using a Eurosphere-100 C18 HPLC column and 0.1% TFA mobile phases moderated with acetonitrile. Radioactive components were detected in the HPLC system using an in-line radiometric detector. Under the gradient conditions employed radiolabeled impurities (for example: ^99mTc glucoheptonate, ^99mTc edetate, and ^99mTc pertechnetate) eluted early (between 1 and 4 minutes), while the radiolabeled peptides eluted much later (between 8 and 20 minutes). In general, two isomeric radiometal complexes were observed, and the HPLC RCP was measured as the sum of the percent areas of the peaks corresponding to the two complexes. Radiochemical purity results for each of compounds are summarized in the examples that follow.
(§3) To ^99mTc radiolabelled peptide preparations described in Example 3 was added 150 μg of cysteine (approximately a 7-fold molar excess over peptide), and the preparations were stored at room temperature and monitored by HPLC for up to 12 hours. The amount of ^99mTc cysteine formed over time was noted. The initial HPLC analysis was started within 5 minutes of adding cysteine. In all cysteine challenge studies, a chelator compound containing a stabilizing sidechain was screened vs. the corresponding control chelator compound containing no sidechain. The relative amount of ^99mTc cysteine formed over time correlates inversely with the stability of the chelator (ie. less ^99mTc cysteine indicates higher chelator stability).
Several model chelator peptides were prepared with an N^1—N^2-Cys (N^1, N^2=independently any amino acid) amino acid sequence capable of complexing technetium as a triamide thiol chelator. Various stabilizing sidechains were substituted into the N^1—N^2-Cys chelator in two positions R1 and R2 as depicted in FIG. 4. The compounds were screened in the cysteine challenge experiment described in Example 4. Several experiments were conducted where 1-2 chelators were compared directly to a control chelator containing no stabilizing sidechain (compound GoC1 was also analyzed alone in a further study). Results in Table 5 represent % Peptide complexed to ^99mTc (ie. 100%−the amount of ^99mTc cysteine) vs. time.
Several model chelator peptides were prepared with an (β)Dap-N^2-Cys (N^2=any amino acid) amino acid sequence capable of complexing technetium as an amine diamide thiol chelator. This chelator is the chelator in the somatostatin peptides that were evaluated in Examples 5 and 6. Various stabilizing sidechains were substituted into the (β)Dap-N^2-Cys chelator in two positions R3 and R4 as depicted in FIG. 5. The compounds were screened in the cysteine challenge experiment described in Example 4. Several experiments were conducted where 1-2 chelators were compared directly to a control chelator containing no stabilizing sidechain. Results in Table 6 are the same as described in Example 7.
Two model chelator peptides were prepared with a ma-N^1—N^2 (Ma=mercaptoacetyl; N^1, N^2=independently any amino acid) amino acid sequence capable of complexing technetium as a triamide thiol chelator. This chelator has the thiol donor group at the N-terminus of the peptide. A stabilizing sidechain was substituted into the ma-N^1—N^2 chelator in position R5 as depicted in FIG. 6. The compounds were radiolabeled according to Example 3 with the exception that additional NaOH was added to bring the pH of the preparation up to pH 8.5. […]

[2] = Cysteine challenge stability of ^188Re chelator peptides; details: radiolabeled with ^188Re
Method: For the ^188Re radiolabeling, a peptide as the TFA salt was dissolved in saline at 1 mg/mL and 100 μg (100 μL) was added to a ^188Re placebo vial. To the vial was added 100 μg stannous chloride dihydrate. The vial was reconstituted with 0.9 mL rhenium ^188Re sodium perrhenate containing approximately 20 mCi and saline such that the final preparation volume was 1.5 mL. The vial was heated in a boiling water bath for 15 minutes and cooled at room temperature for 10 minutes. Finally 1 mL of an antioxidant stabilizer solution containing 10 mg gentisic acid sodium salt monohydrate and 20 mg ascorbic acid was added to the vial.
as §2, §3
Some of the N^1—N^2-Cys (N^1, N^2=independently any amino acid) model chelator peptides described in Example 7 were radiolabeled with ^188Re and screened in the cysteine challenge experiment described in Example 4. Two chelators (See FIG. 4) were compared directly to the control chelator containing no stabilizing sidechain. In these studies, the products were monitored for 6 hours. Results in Table 8 represent % Peptide complexed to ^188Re (ie. 100%−the amount of ^188Re cysteine) vs. time.

[3] = HPLC radiochemical purity (RCP) stability of ^99mTc radiolabeled somatostatin peptides
Method: Lyophilized kit “placebo” vials were prepared containing 5 mg sodium glucoheptonate dihydrate, 100 μg edetate disodium dihydrate, and either 50 μg (^99mTc placebo) or 1000 μg (^188Re placebo) stannous chloride dihydrate. The formulations were adjusted to pH 7.4 prior to lyophilization.
as §1, §2
Somatostatin peptides were prepared with varying sidechains in the chelator portion of the compounds as described in FIG. 2. The sidechains varied in length from 0 to 5 atoms. These peptides have an amine-diamide-thiol chelator of the (β)Dap-N^2-Cys type (N^2=any amino acid). Each of the peptides were radiolabeled and monitored for HPLC stability out to 9 hours according the procedures described in Example 3.
Analogs to a commercial lung cancer imaging radiopharmaceutical (NeoTect®) were prepared to investigate the influence of the stabilizing sidechain (D)-CH2CH2CH2NH2 as described in FIG. 3. These peptides have an amine-diamide-thiol chelator of the (β)Dap-N^2-Cys type (N^2=any amino acid). The compound with N^2=Lys (sidechain=(L)-CH2CH2—CH2CH2NH2) is the peptide in the commercial radiopharmaceutical product. Each of the peptides were radiolabeled and monitored for HPLC stability out to 18 hours according to the procedures described in Example 3.

[4] = ^99mTc labeled somatostatin peptide, (β)Dap-N2-Cys chelator, sum of percent areas of the two complex peaks
[5] = ^99mTc labeled somatostatin peptide, (β)Dap-N2-Cys chelator

## Bz-Gly-Gly-Glu-Cys-Ala.amide (Bz-GGECA-NH2; SMILES C[C@H](NC(=O)[C@H](CS)NC(=O)[C@H](CCC(=O)O)NC(=O)CNC(=O)CNC(=O)c1ccccc1)C(N)=O)
[1]
  % Peptide Complexed to ^99mTc Initial: 100%
  % Peptide Complexed to ^99mTc 2 h: 88.9%
  % Peptide Complexed to ^99mTc 4 h: 84.5%
  % Peptide Complexed to ^99mTc 6 h: 80.3%
  % Peptide Complexed to ^99mTc 8 h: 75.7%
  % Peptide Complexed to ^99mTc 10 h: 74.1%
  % Peptide Complexed to ^99mTc 12 h: 69.0%
[2]; 1.5 h
  % Peptide Complexed to ^188Re: 94.0%
[2]; 3 h
  % Peptide Complexed to ^188Re: 90.5%
[2]; 4.5 h
  % Peptide Complexed to ^188Re: 89.7%
[2]; 6 h
  % Peptide Complexed to ^188Re: 90.2%
[2]; N1-N2-Cys chelators, Initial
  % Peptide Complexed to ^188Re: 98.0%

## Bz-Gly-Gly-Gly-Cys-Ala.amide (Bz-GGGCA-NH2; SMILES C[C@H](NC(=O)[C@H](CS)NC(=O)CNC(=O)CNC(=O)CNC(=O)c1ccccc1)C(N)=O) [GGC1, control chelator, no stabilizing sidechain]
[1]
  % Peptide Complexed to ^99mTc Initial: 98.2% and 98.8% and 96.9%
  % Peptide Complexed to ^99mTc 2 h: 83.4% and 83.6% and 85.2%
  % Peptide Complexed to ^99mTc 4 h: 83.5% and 74.0% and 71.7%
  % Peptide Complexed to ^99mTc 6 h: 74.3% and 72.0%
  % Peptide Complexed to ^99mTc 8 h: 69.8% and 68.3% and 61.7%
  % Peptide Complexed to ^99mTc 10 h: 57.9% and 65.0% and 60.0%
  % Peptide Complexed to ^99mTc 12 h: 60.7% and 49.7%
[2]; 1.5 h
  % Peptide Complexed to ^188Re: 80.1%
[2]; 3 h
  % Peptide Complexed to ^188Re: 61.4%
[2]; 4.5 h
  % Peptide Complexed to ^188Re: 50.2%
[2]; 6 h
  % Peptide Complexed to ^188Re: 47.7%
[2]; N1-N2-Cys chelators, Initial
  % Peptide Complexed to ^188Re: 100%

## cyclo-[(N-Me)Phe-Tyr-(D)Trp-Lys-Val-Hcy]-CH2CO.(β)Dap-(D)Orn-Cys-Lys-NH2 [-(β)Dap-(D)Orn-Cys-Lys-NH2]
[3]; ^99mTc labeled NeoTect analogs
  HPLC RCP 0.5 hours: 96.8%
  HPLC RCP 3 hours: 94.1%
  HPLC RCP 6 hours: 91.3%
  HPLC RCP 9 hours: 89.8%
  HPLC RCP 18 hrs.: 81.9%

## cyclo-[(N-Me)Phe-Tyr-(D)Trp-Lys-Val-Hcy]-CH2CO.(β)Dap-Gly-Cys-Lys-NH2 [-(β)Dap-Gly-Cys-Lys-NH2]
[3]; ^99mTc labeled NeoTect analogs
  HPLC RCP 0.5 hours: 92.3%
  HPLC RCP 3 hours: 84.9%
  HPLC RCP 6 hours: 85.6%
  HPLC RCP 9 hours: 81.3%
  HPLC RCP 18 hrs.: 76.0%

## cyclo-[(N-Me)Phe-Tyr-(D)Trp-Lys-Val-Hcy]-CH2CO.(β)Dap-Lys-Cys-Lys-NH2 [-(β)Dap-Lys-Cys-Lys-NH2, reference compound]
[3]; ^99mTc labeled NeoTect analogs
  HPLC RCP 0.5 hours: 93.9%
  HPLC RCP 3 hours: 91.0%
  HPLC RCP 6 hours: 85.2%
  HPLC RCP 9 hours: 81.8%
  HPLC RCP 18 hrs.: 75.7%

## cyclo-[Tyr-(D)Trp-Lys-Thr-Phe-(N-Me)Hcy]-CH2CO.(β)Dap-(α)Dap-Cys-Thr-Ser [—CH2NH2]
[3]; [4]
  HPLC RCP 0.5 hours: 88.5%
[3]; [5]
  HPLC RCP 3 hours: 86.6%
  HPLC RCP 6 hours: 84.1%
  HPLC RCP 9 hours: 82.6%

## cyclo-[Tyr-(D)Trp-Lys-Thr-Phe-(N-Me)Hcy]-CH2CO.(β)Dap-Dab-Cys-Thr-Ser [—CH2CH2NH2]
[3]; [4]
  HPLC RCP 0.5 hours: 94.3%
[3]; [5]
  HPLC RCP 3 hours: 91.6%
  HPLC RCP 6 hours: 90.7%
  HPLC RCP 9 hours: 89.2%

## cyclo-[Tyr-(D)Trp-Lys-Thr-Phe-(N-Me)Hcy]-CH2CO.(β)Dap-Gly-Cys-Thr-Ser [—H]
[3]; [4]
  HPLC RCP 0.5 hours: 89.7%
[3]; [5]
  HPLC RCP 3 hours: 84.8%
  HPLC RCP 6 hours: 83.7%
  HPLC RCP 9 hours: 80.2%

## cyclo-[Tyr-(D)Trp-Lys-Thr-Phe-(N-Me)Hcy]-CH2CO.(β)Dap-Lys-Cys-Thr-Ser [—CH2CH2CH2CH2NH2]
[3]; [4]
  HPLC RCP 0.5 hours: 83.4%
[3]; [5]
  HPLC RCP 3 hours: 83.4%
  HPLC RCP 6 hours: 81.3%
  HPLC RCP 9 hours: 81.0%

## cyclo-[Tyr-(D)Trp-Lys-Thr-Phe-(N-Me)Hcy]-CH2CO.(β)Dap-Met-Cys-Thr-Ser [—CH2CH2SCH3]
[3]; [4]
  HPLC RCP 0.5 hours: 95.0%
[3]; [5]
  HPLC RCP 3 hours: 93.7%
  HPLC RCP 6 hours: 92.5%
  HPLC RCP 9 hours: 92.3%

## cyclo-[Tyr-(D)Trp-Lys-Thr-Phe-(N-Me)Hcy]-CH2CO.(β)Dap-Orn-Cys-Thr-Ser [—CH2CH2CH2NH2]
[3]; [4]
  HPLC RCP 0.5 hours: 97.0%
[3]; [5]
  HPLC RCP 3 hours: 95.2%
  HPLC RCP 6 hours: 94.9%
  HPLC RCP 9 hours: 94.9%

Reference: US7481993B2, “Chelators for radioactively labeled conjugates comprising a stabilizing sidechain” (Schering AG, priority 2005, dated 2009)
